Results from ChEMBL document CHEMBL6109163, “6-Aryl Isoindolin-1-ones: Novel mGluR2 Negative Allosteric Modulators” (ACS Med Chem Lett, 2025).

Key:
[1] = molecular target: Metabotropic glutamate receptor 2 (Rattus norvegicus, UniProt P31421); assay: Negative allosteric modulator activity at glutamate-stimulated rat mGluR2 receptor expressed in HEK293 cells assessed as inhibition of thallium flux preincubated for 2 mins 20 secs followed by glutamate addition and measured for 2.5 mins by fluorescence based analysis; type: cell-based
[2] = molecular target: Metabotropic glutamate receptor 3 (Rattus norvegicus, UniProt P31422); assay: Negative allosteric modulator activity at rat mGluR3 receptor by TI flux assay-based fluorescence analysis
Metabotropic glutamate receptor 3, sequence (P31422 whole entry): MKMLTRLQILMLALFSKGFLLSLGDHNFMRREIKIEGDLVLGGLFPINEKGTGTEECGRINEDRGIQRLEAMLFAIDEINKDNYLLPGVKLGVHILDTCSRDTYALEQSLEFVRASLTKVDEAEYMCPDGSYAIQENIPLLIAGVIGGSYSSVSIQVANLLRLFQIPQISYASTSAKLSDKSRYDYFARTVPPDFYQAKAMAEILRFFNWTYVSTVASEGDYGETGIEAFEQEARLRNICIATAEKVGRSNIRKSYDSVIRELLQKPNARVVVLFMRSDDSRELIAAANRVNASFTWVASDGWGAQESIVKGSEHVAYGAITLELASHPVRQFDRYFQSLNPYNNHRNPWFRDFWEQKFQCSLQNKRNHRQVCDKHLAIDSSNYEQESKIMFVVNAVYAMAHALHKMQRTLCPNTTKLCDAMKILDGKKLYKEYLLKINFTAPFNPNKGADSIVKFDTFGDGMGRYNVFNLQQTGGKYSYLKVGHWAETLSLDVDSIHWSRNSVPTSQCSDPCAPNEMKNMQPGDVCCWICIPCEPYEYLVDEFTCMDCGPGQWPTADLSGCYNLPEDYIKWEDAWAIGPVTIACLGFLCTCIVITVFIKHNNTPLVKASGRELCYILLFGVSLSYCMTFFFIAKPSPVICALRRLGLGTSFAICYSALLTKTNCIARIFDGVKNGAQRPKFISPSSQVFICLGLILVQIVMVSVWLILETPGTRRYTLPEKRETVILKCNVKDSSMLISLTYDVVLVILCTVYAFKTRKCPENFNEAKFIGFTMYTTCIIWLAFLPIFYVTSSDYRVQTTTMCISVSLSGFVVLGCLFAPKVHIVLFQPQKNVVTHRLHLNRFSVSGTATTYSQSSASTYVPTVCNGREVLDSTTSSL

Metabotropic glutamate receptor 2, sequence (P31421 whole entry): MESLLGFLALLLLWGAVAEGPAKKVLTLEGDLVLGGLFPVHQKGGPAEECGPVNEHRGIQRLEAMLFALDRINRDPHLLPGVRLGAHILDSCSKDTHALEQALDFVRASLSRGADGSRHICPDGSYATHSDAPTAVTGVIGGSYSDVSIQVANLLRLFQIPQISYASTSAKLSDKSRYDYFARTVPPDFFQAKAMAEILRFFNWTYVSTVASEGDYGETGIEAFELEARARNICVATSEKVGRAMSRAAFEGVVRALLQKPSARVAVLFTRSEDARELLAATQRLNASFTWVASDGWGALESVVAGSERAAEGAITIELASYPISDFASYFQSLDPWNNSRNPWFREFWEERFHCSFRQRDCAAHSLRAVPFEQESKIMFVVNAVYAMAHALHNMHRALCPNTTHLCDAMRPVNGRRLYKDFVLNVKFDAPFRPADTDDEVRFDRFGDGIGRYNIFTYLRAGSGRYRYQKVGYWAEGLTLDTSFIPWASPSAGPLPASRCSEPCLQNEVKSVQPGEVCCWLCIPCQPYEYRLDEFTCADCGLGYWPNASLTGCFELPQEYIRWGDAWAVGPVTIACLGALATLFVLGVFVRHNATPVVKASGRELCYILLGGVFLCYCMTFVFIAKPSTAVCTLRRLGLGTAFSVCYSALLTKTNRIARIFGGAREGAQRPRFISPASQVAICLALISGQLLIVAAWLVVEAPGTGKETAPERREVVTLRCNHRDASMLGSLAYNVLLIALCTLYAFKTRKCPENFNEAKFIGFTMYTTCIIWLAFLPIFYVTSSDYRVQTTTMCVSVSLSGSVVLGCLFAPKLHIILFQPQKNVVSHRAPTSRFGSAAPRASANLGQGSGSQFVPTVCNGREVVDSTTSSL

IC50 [1] [µM] | IC50 [2] [µM] | Structure (SMILES)
0.659 | > 10 | Cc1ccc(-c2cc3c(cc2-c2ccc(F)cc2)C(=O)NC3)cn1
– | > 10 | N#Cc1cccc(-c2cc3c(cc2-c2ccc(F)cc2F)C(=O)NC3)c1F
– | > 10 | Cc1ccc(-c2cc3c(cc2-c2ccc(F)cc2)C(=O)NC3)nc1
0.693 | > 10 | O=C1NCc2cc(-c3cccnc3C3CC3)c(-c3ccc(F)cc3F)cc21
– | > 10 | O=C1NCc2cc(C3CCOCC3)c(-c3ccc(F)cc3)cc21
– | > 10 | O=C1NCc2cc(-c3cnc4[nH]ccc4c3)c(-c3ccc(F)cc3F)cc21
